Data on twelve compounds can be found in PubChem BioAssay (NCI).

Each structure is given as a SMILES string.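 Test compounds were applied to cells in 96-well plates for 48 hours at 5 doses. Here, GI50 denotes the concentration required for 50% inhibition of growth. At the TGI there is no net growth.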

What all share (test): NCI-60 cell line screen, 48 h
Test [1] concerns BT-549 breast.
The test system of test [2] is HCT-116 colon.
The test system of test [3] is HT29 colon.
Test [4] has as its system LOX IMVI melanoma.
Test [5] has as its system M14 melanoma.
Test [6] has as its system NCI-H522 lung.
Test [7] concerns RPMI-8226 leukemia.
Test [8] deals with SF-539 CNS.
The subject of test [9] is SNB-19 CNS.
Test [10] concerns U251 CNS.

`O=C1Cc2c(-c3ccccc3)cc(-c3ccccc3)nc2-c2ccccc2N1`: the TGI was 22.5 µM in [1]; 5.37 µM in test [2]; 28 µM in [3]; above 100 µM in [4]; 17.5 µM in test [5]; 30.2 µM in test [6]. Moreover, the TGI is above 100 µM in test [7], 34.4 µM in test [8], 8.76 µM in test [9] and 20 µM in test [10].
As to `C[C@H]1CCC/C=C/C2CC(OC(=O)CN(C)C)CC2C(OC(=O)CN(C)C)/C=C/C(=O)O1` (some centres undefined), the GI50 in test [1] was 0.459 µM; in [2] it was 0.762 µM; in test [3], 0.342 µM; in test [4] it was 1.16 µM; in test [5], 0.178 µM; in test [6], 0.658 µM. The GI50 in test [7] was 0.712 µM; in test [8], 0.531 µM; in test [9], 2.76 µM; in [10], 0.861 µM. Also, the TGI came out at 74.9 µM in [1]; 16.7 µM in test [2]; 3.8 µM in [3]; 2.67 µM in test [4]; 4.65 µM in [5]; 2.83 µM in [6]. In addition, the TGI in [7] was above 81.4 µM; in test [8], above 100 µM; in test [9], above 100 µM; in test [10], 46.8 µM.
`CC1(C)OB(c2ccc(N(CCOS(C)(=O)=O)CCOS(C)(=O)=O)cc2)OC1(C)C`: the GI50 in [1] was 17.6 µM; in [2], 10.5 µM; in test [3], 30 µM; in test [4] it was 6.98 µM; in test [5], 3.01 µM; in test [6], 14.3 µM. The GI50 in [7] was 7.75 µM; in test [8], 7.55 µM; in test [9] it was 31.3 µM; in [10], 8.66 µM. In addition, the TGI in test [1] is 41 µM; in test [2], 24.7 µM; in [3], above 100 µM; in test [4], above 53.3 µM; in test [5] it was 13.7 µM; in test [6], 74.5 µM. Further, the TGI in [7] is above 72.5 µM; in [8], 29.9 µM; in [9], above 100 µM; in test [10] it was 34.7 µM.
On to `Cc1cccc2c(C3=C(c4cn(C)c5ccccc45)C(=O)NC3=O)cn(C)c12`, for which the GI50 in test [1] was 12.7 µM; in test [2], above 15.8 µM; in [3], above 13.8 µM; in [4], above 22 µM; in test [5], above 25 µM; in test [6], above 17 µM. Also, the GI50 was above 18.6 µM in test [7], 19.1 µM in test [8], above 25 µM in test [9] and above 25 µM in test [10]. Besides, the TGI in [1], in [2], in test [3], in [4], in test [5] and in test [6] was above 25 µM throughout. Further, the TGI in test [7], in test [8], in test [9] and in test [10] was above 25 µM in each case.
As for `Cc1nc2ccccn2c1NC(=O)NN1C(=O)CSC1c1ccc(Cl)cc1` (centres undefined), the GI50 in test [1], in [2], in test [3], in test [4], in [5] and in test [6] was above 100 µM throughout. The GI50 in test [7], in test [8], in [9] and in test [10] was above 100 µM each time. The TGI in test [1], in test [2], in test [3], in [4], in test [5] and in [6] was above 100 µM throughout. The TGI in [7], in test [8], in [9] and in [10] was above 100 µM each time.
In the case of `CN(C)c1ccc(C(=S)c2ccc(N(C)C)cc2)cc1`, the GI50 in [1] was 6.76 µM; in test [2], 3.71 µM; in test [3] it was 3.79 µM; in test [4], 5.86 µM; in [5] it was 3.33 µM; in test [6], 2.56 µM. Besides, the GI50 was 9.89 µM in test [7], 7.1 µM in test [8], 6.16 µM in test [9] and 6.34 µM in test [10]. Further, the TGI is 90.1 µM in test [1]; above 100 µM in [2]; above 100 µM in test [3]; 88.6 µM in test [4]; above 100 µM in [5]; 9.31 µM in test [6]. For the same compound, the TGI in [7] is above 100 µM; in test [8] it was 56.4 µM; in test [9], above 100 µM; in test [10] it was above 100 µM.
With `C[C@@H]1CC[C@H]2[C@@H](C)C(O)O[C@@H]3O[C@]4(C)CC[C@@H]1[C@]32OO4` (some centres undefined), the GI50 in test [1] is 0.721 µM; in [2], 0.141 µM; in test [3] it was 0.634 µM; in test [4] it was 0.309 µM; in [5], 1.24 µM; in test [6] it was 0.329 µM. Also, the GI50 in [7] is 0.143 µM; in [8], 0.868 µM; in test [9], 3.39 µM; in [10] it was 0.532 µM. The TGI is 45.4 µM in [1]; 3.55 µM in test [2]; 13.5 µM in [3]; 0.973 µM in test [4]; 24.2 µM in [5]; 3.29 µM in [6]. Also, the values for the TGI in test [8], in [9] and in test [10] were 14.2 µM, above 72.6 µM and 16.6 µM, respectively.
As to `COc1ccc(-c2nn(-c3cccc(Cl)c3)cc2/C=C2\NC(=S)N(c3ccc(Cl)cc3)C2=O)cc1`, the GI50 was 4.46 µM in test [1]; 3.18 µM in test [2]; 4.99 µM in test [3]; 5.97 µM in [4]; 4.39 µM in test [5]; 1.98 µM in test [6]. For the same compound, the GI50 in test [7] is 3.53 µM; in [8], 8.22 µM; in test [9] it was 6.54 µM; in test [10] it was 2.86 µM. The TGI was 11.6 µM in test [1]; 7.75 µM in test [2]; 10.6 µM in test [3]; above 25 µM in test [4]; 10.2 µM in [5]; 6.21 µM in test [6]. The TGI was 15.9 µM in [7], above 25 µM in test [8], above 25 µM in test [9] and 6.99 µM in [10].
As to `CCOC(=O)C1(CC(=O)O)CCCC1=O` (centres undefined), the TGI in test [1], in test [2], in test [3], in [4], in test [5] and in [6] was above 100 µM throughout. The TGI in [7], in test [8], in [9] and in test [10] was above 100 µM throughout.
In the case of `Oc1ccc(NC(=S)Nc2ccccc2)cc1`, the GI50 in test [1], in test [2], in [3], in test [4], in test [5] and in [6] was above 100 µM in each case. Moreover, the GI50 in test [7], in test [8], in test [9] and in [10] was above 100 µM each time. Besides, the TGI in [1], in [2], in test [3], in test [4], in test [5] and in test [6] was above 100 µM each time. The TGI in test [7], in test [8], in [9] and in [10] was above 100 µM throughout.
Regarding `C=CC(=O)N[C@@H]1CN(c2nc(Nc3cn(C)nc3OC)c3ncn(C)c3n2)C[C@H]1F`, the GI50 in test [1] was 28.6 µM; in [2] it was 27.3 µM; in test [3] it was 20.9 µM; in test [4], 30 µM; in test [5], 18.7 µM; in test [6], 0.0335 µM. The GI50 in [7] is above 71.7 µM; in [8] it was 28.1 µM; in test [9], 27.1 µM; in [10], 39.1 µM. The TGI in test [1] is above 100 µM; in test [2], above 100 µM; in test [3], above 83.1 µM; in [4], above 100 µM; in test [5], 61.6 µM; in [6], 17.7 µM. In addition, the TGI in [7], in [8], in [9] and in test [10] was above 100 µM throughout.
Turning to `O=c1cc(-c2ccc(Cl)cc2)[nH]c2ccccc12`, the GI50 in [1] was 29.4 µM; in [2], 32.5 µM; in test [3], 40.7 µM; in test [4], 39.3 µM; in [5] it was 27.8 µM; in test [6] it was 59.6 µM. Also, the GI50 in test [7] is 46.9 µM; in [8] it was 52.8 µM; in test [9] it was 95.3 µM; in [10], 41.5 µM. The TGI in test [1], in test [2], in [3], in test [4], in test [5] and in test [6] was above 100 µM throughout. In addition, the TGI in test [7], in test [8], in [9] and in test [10] was above 100 µM throughout.
